The nature of assay [1]: cells. It counts as functional, cell-based.
The nature of assay [2]: cells. In kind it is functional, cell-based. This is another data set of the same source.
The nature of assay [3]: ADAM10 protease inhibitors, dose response, selectivity assay for ADAM17 exosite inhibitor project, biochemical, FRET peptide substrate, recombinant human ADAM10 (AID 743259).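 Note: ADAM10 enzyme cleaving a FRET peptide substrate.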
Assay [4] concerns the target Disintegrin and metalloproteinase domain-containing protein 17 (Homo sapiens, UniProt P78536). As to the kind of experiment: exosite inhibitors of ADAM17, dose response, biochemical (AID 743260).
The subject of another assay is HeLa. As to the kind of experiment: HeLa cell cytotoxicity, dose response, cytotoxicity control, ATP luminescence, cherry-pick samples (AID 687004). It counts as functional, cell-based. The following applies: Homo sapiens.
Assay [5] can be described thus: HEp-2 cell cytotoxicity, dose response, cytotoxicity control for RSV inhibitor project, HTS (AID 2410). It counts as functional. Conditions: human respiratory syncytial virus.
The next assay deals with Vero. In words: cells. Conditions: Chlorocebus sabaeus. In kind it is functional.
Assay [6] addresses T1, High affinity choline transporter 1 (Homo sapiens, UniProt Q9GZV3).
T1 sequence (Q9GZV3 whole entry): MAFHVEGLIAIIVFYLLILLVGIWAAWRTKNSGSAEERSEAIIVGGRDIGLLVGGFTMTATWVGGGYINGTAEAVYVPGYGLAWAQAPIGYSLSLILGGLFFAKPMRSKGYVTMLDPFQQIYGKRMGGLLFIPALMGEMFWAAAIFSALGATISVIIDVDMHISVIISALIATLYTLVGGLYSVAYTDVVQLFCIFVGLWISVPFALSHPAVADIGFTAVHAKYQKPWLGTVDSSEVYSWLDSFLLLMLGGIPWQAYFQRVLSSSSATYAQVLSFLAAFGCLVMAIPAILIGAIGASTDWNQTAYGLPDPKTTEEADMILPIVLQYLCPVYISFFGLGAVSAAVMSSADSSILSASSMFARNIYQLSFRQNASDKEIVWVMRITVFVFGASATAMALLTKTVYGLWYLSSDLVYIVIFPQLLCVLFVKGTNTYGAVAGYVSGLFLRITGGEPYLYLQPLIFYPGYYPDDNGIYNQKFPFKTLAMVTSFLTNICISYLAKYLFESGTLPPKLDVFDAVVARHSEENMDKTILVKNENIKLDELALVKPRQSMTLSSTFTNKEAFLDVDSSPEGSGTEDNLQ
In words: CHT inhibitors, dose response, cell-based, 5-point CRC, membrane potential dye (AID 504840). In kind it is functional.

Molecules are shown by their SMILES. Active and inactive are the calls of the source.
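Throughout, for EC50: agonist potency from rise in intracellular calcium fluorescence.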

Chain of Disintegrin and metalloproteinase domain-containing protein 17 (P78536 whole entry, the tested form may be a part): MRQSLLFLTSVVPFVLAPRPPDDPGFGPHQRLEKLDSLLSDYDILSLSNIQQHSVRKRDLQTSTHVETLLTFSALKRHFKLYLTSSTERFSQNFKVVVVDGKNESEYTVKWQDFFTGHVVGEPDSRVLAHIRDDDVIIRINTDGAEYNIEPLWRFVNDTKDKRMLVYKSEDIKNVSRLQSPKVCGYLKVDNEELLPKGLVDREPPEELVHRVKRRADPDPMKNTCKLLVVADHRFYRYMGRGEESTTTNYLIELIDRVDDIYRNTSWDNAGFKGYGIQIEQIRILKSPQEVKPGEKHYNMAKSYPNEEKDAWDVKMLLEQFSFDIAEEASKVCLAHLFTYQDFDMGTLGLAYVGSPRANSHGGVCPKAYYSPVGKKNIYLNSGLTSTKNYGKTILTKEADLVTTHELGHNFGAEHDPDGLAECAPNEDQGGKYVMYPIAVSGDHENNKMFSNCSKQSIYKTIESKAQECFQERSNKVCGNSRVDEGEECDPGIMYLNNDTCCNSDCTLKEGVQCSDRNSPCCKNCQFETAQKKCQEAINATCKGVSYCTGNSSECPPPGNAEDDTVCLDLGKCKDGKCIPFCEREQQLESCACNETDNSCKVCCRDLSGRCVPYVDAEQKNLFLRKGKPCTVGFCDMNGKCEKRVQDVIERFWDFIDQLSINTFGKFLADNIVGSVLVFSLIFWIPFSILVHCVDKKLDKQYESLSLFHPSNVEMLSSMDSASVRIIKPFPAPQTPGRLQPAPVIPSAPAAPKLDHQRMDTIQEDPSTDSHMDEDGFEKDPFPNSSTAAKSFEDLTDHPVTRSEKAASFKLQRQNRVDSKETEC

As to `Cc1nn(C(=O)CCC(=O)NCCc2ccccc2)c2ccccc12`, the IC50 in the assay “cells [1]” was > 29.9 µM (inactive). In addition, the EC50 in “cells [2]” was > 29.9 µM (inactive).

For the compound `O=C1NC(=O)C(c2ccc(Cl)cc2)N1` (stereo not drawn), the IC50 in assay [3] and in assay [4] was > 69.4 µM (inactive) each time.

For the compound `COc1cccc(C(NC(C)=O)c2nc(-c3ccc4ccccc4c3)cs2)c1` (stereo not drawn), the IC50 was 18.5 µM (inactive) in assay [3] and > 69.5 µM (inactive) in assay [4].

For the compound `C[C@@H]1CN([C@@H](C)CO)C(=O)Cc2cc(NS(=O)(=O)c3ccccc3)ccc2O[C@@H]1CN(C)Cc1ccc(Cl)c(Cl)c1`, in the assay on HeLa, the AC50 was 43.7 µM (active).

In the case of `C[C@H](CO)N1C[C@H](C)[C@@H](CN(C)Cc2ccncc2)Oc2ccc(NC(=O)CCC(F)(F)F)cc2C1=O`, the concentration at half-maximal activity (AC50) in the assay with HeLa is 23.4 µM (active).

As for `CN1C(=O)/C(=N\c2ccc(O)cc2)c2c3ccccc3c(O)c3cccc1c23`, the cytotoxic concentration (CC50) in assay [5] was 16.8 µM (active); with Vero, > 25 µM (active). Besides, the IC50 is 28.9 µM (inactive) in assay [3], > 69.5 µM (inactive) in assay [4] and 12.3 µM (active) in assay [6].

As a reminder, the IC50 is the point on the concentration scale where inhibition reaches its midpoint. As a reminder, the EC50 is the concentration giving half of the maximal effect. Usually AC50 stands for the midpoint of the concentration-response curve, whichever way the signal moves. By CC50 is commonly meant the concentration at which the toxic effect on the cells reaches its halfway point.

(Values after ChEMBL document CHEMBL1201862, “PubChem BioAssay data set” (2004).)
